Assay results published in patent US7419950B2, “Methods of inhibiting ectopic calcification” (University of Washington, priority 1998, dated 2008).

Key:
alkaline phosphatase = biological target: T1, alkaline phosphatase (Bos taurus, UniProt P09487); assay: Cellular alkaline phosphatase activity of BASMC cultures; format: cell-based, bovine; settings: cells in calcification medium
T1 construct: cellular proteins were solubilized with 1% Triton X-100 in 0.9% NaCl and centrifuged; endogenous in cells; host or cells: BASMC (bovine aortic smooth muscle cells), detergent lysate supernatant
T1 sequence (P09487 18-499): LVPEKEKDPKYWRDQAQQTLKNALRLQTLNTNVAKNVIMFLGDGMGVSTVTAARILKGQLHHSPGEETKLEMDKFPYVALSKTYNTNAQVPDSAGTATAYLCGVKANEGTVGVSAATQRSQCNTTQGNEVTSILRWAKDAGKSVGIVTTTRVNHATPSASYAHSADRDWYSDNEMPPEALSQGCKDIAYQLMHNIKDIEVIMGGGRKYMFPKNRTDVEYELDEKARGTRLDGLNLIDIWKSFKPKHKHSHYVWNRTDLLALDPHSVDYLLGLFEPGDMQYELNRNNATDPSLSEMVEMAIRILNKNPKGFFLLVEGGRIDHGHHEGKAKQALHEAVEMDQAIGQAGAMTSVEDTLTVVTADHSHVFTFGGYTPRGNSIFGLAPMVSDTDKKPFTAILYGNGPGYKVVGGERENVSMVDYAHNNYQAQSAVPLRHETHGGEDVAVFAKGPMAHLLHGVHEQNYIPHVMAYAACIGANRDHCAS
Procedure: For cellular alkaline phosphatase activity measurements, cells were cultured in calcification medium in the presence of various concentrations of osteopontin. Cells were washed three times with PBS and cellular proteins were solubilized with 1% Triton X-100 in 0.9% NaCl and centrifuged. Supernatants were assayed for alkaline phosphatase activity by the method described by Bessey et al., J. Biol. Chem. 164:321-329 (1946), which is incorporated herein by reference. One unit was defined as the activity producing 1 nmol of p-nitrophenol within 1 minute. Protein concentrations were determined with a Bio-Rad protein assay kit (Bio-Rad). The data were normalized to the protein content of the cell layer.

[1] = system: bovine aortic smooth muscle cells (BASMC); assay: Calcium deposition by cultured bovine aortic smooth muscle cells in calcification medium; format: cell-based; settings: for inhibition of calcium deposition (in words): equimolar concentrations as were effective for osteopontin
Procedure: In order to examine calcification by cultured BASMC smooth muscle cells, calcification was induced by the method described by Shioi et al., Arterioscler Thromb Vasc Biol., 15:2003-2009 (1995), which is incorporated herein by reference. Briefly, BASMC were cultured in growth medium for 4 days, and then switched to calcification medium (DMEM (high glucose, 4.5 g/L) containing 15% FBS and 10 mM sodium pyruvate in the presence of 10 mM of β-glycerophosphate (unless otherwise stated), 10^-7 M insulin, and 50 μg/ml of ascorbic acid, supplemented with 100 U/ml of penicillin and 100 μg/ml of streptomycin) for 10 days. The medium was replaced with fresh medium twice a week. In the time course experiments, the beginning day of culture in calcification medium was defined as day 0.
(§1) Calcification was assessed by a modification of the method described by Jono et al., Arterioscler. Thromb. Vasc. Biol. 17:1135-1142 (1997) which is incorporated herein by reference. Briefly, the cultures were decalcified with 0.6 N HCl for 24 hours. The calcium content of the HCl supernatant was determined calorimetrically by the o-cresolphthalein complexone method (Calcium Kit, Sigma). After decalcification, the cultures were washed with phosphate-buffered saline (PBS) and solubilized with 0.1 N NaOH/0.1% sodium dodecyl sulfate(SDS). Total protein content was measured with a Bio-Rad Protein Assay Kit (Bio-Rad). The calcium content of the cell layer was normalized to protein content. Phosphorus and calcium concentrations in the culture medium were measured by the phosphomolybdate complex method (Phosphorus Kit, Sigma) and the o-cresolphthalein complexone method (Calcium Kit, Sigma), respectively. Values were expressed as the mean +/− SEM, n=3.
To examine the effect of osteopontin on BASMC-mediated calcification in vitro, soluble osteopontin or vehicle alone (0.1 mM sodium citrate) was added to the calcifying BASMC cultures. […] In contrast, vehicle alone had no effect (FIG. 2a).
To exclude the possibility that contaminants in the osteopontin preparation were responsible for the observed inhibitory effect, immunodepletion experiments were performed. Medium containing 10 μg/ml osteopontin was mixed with […] anti-osteopontin (OP-199) or normal goat IgG, prepared by the method described by Liaw et al., supra (1994) and incubated for 1 hr at room temperature. 250 mg protein-A-sepharose was added and incubated for 1 hr at room temperature. The antibody-protein A sepharose complexes were removed by centrifugation, and the remaining supernatant diluted twenty-fold for use in the calcification studies. Unpaired Student's t test was employed to compare groups and a probability value (p) value less than 0.05 was considered significant.

BASMC = assay: Phosphorus concentration in BASMC culture medium; format: cell-based, bovine; settings: BASMC calcification medium
Procedure: as §1

[2] = system: human vascular smooth muscle cells (HSMC); assay: Calcium deposition by human vascular smooth muscle cells in high-phosphate calcification medium; format: cell-based; settings: for calcium deposition into HSMC matrix (in words): high-phosphate calcification medium
Procedure: as §1
HSMC were routinely subcultured in growth medium. At confluence, cells were switched to calcification medium (DMEM containing 15% FBS and 1 mM sodium pyruvate in the presence of 2 mM inorganic phosphate supplemented with 100 U/ml penicillin and 100 μg/ml of streptomycin) for up to 14 days. The medium was replaced with fresh medium every 2 days. For time-course experiments, the first day of culture in calcification medium was defined as day 0. Calcium deposition was quantified and assessed histochemically and cytochemically as described above in Example I.
Osteopontin proteins and functional fragments were assayed for their ability to inhibit ectopic calcification using the HSMC calcification system described in Example III. The osteopontin proteins include full-length human recombinant osteopontin as well as recombinant N-terminal and C-terminal human osteopontin fragments similar to those that would be formed following thrombin cleavage of the native protein, as described by Smith et al., supra (1996). Two N-terminal fragments were used, 10N and 30N, which refer to two differ splice variants of osteopontin. The 30N splice variant contains an additional 14 amino acids, […] (SEQ ID NO: 7), which correspond to exon 5 (amino acids 59-72). The ION fragment contains amino acids 17-58 and 73-160 of native osteopontin, whereas the 30N fragment contains amino acids 17-169. The 10C fragment contains the C-terminal domain of osteopontin, amino acids 170-317.
Recombinant osteopontin and its functional fragments were assayed for their ability to inhibit ectopic calcification of human smooth muscle cells (HSMC) either prior to or following phosphorylation by casein kinase II. The amount of phosphate incorporated into osteopontin (OPN) and its fragments achieved by casein kinase II phosphorylation is shown in FIG. 5b.

Question: How did the “alkaline phosphatase activity of BASMC cultures (in words)” value (alkaline phosphatase) turn out when “osteopontin: Rat osteopontin purified from the conditioned medium of rat neonatal smooth muscle cell cultures, >95% pure” was run?
Answer: did not affect

Question: What about the “inhibition of BASMC culture calcification” value ([1]; 0.5 ug/ml added on day 7 after start of mineralization, read at day 10) of the same compound?
Answer: 50%

Question: What about the “fold inhibition of calcification versus vehicle” value ([1]; 0.5 ug/ml in medium) of the same compound?
Answer: 18 fold

Question: And the inhibition of calcification ([1]; 0.5 μg/ml, 10 days)?
Answer: approximately 90%

Question: And the “calcium deposition in cell layer” value ([1]; 0.5 ug/ml, no immunodepletion)?
Answer: 0.33 ± 0.06 µmol/mg

Question: What about the “inhibition of calcification (in words)” value ([1]; 5 μg/ml, 10 days) of the same compound?
Answer: almost completely inhibited

Question: What about the “calcification of BASMC (in words)” value ([1]; 0.05, 0.5 and 5 μg/ml, assessed at 10 days) of the same compound?
Answer: dose-dependently inhibited

Question: And the “dependence of inhibitory effect on mineralization on calcium (in words)” value ([1]; medium supplemented with increasing calcium, 10 days)?
Answer: calcium dependent

Question: And the “calcium deposition in cell layer” value ([1]; osteopontin solution immunodepleted with anti-osteopontin antibody (OP-199))?
Answer: 2.60 ± 0.43 µmol/mg

Question: What about the “calcium deposition in cell layer” value ([1]; osteopontin solution treated with normal goat IgG) of the same compound?
Answer: 0.49 ± 0.10 µmol/mg

Question: And the “phosphorus concentration of the culture medium (in words)” value (BASMC)?
Answer: did not reduce

Question: Which EC50 ([1]; BASMC, initial concentration of β-glycerophosphate in medium, read-out: concentration giving half-maximal calcium deposition) does the source give for O=P(O)(O)OC(CO)CO [β-glycerophosphate] here?
Answer: ~4 mM

Question: Which calcium deposition ([2]; 2 mM inorganic phosphate, day 9, mean +/-SEM) does the source give for O=P(O)(O)O [inorganic phosphate] here?
Answer: 210.3+/−2.4 μg/mg protein

Question: “fibronectin: bovine fibronectin (TELIOS), RGD-containing extracellular matrix molecule [reference compound]” was tested. Which “inhibition of calcium deposition (in words)” value [1] did it give?
Answer: unable to inhibit calcium deposition

Question: What does the source list for c1ccc([C@H]2CN3CCSC3=N2)cc1 [levamisole, reference compound]?
Answer: alkaline phosphatase activity of BASMC cultures (in words) (alkaline phosphatase): dose-dependently inhibited; IC50 ([1]; Bos taurus, BASMC cultures in calcification medium, read-out: half-maximal inhibition of calcium deposition): 0.05 mM; calcium deposition in BASMC cultures (in words) ([1]; levamisole versus vehicle): dose-dependently inhibited; phosphorus concentration of the culture medium (in words) (BASMC): reduced

Question: vitronectin [reference compound] was tested. Which “inhibition of calcium deposition (in words)” value [1] did it give?
Answer: unable to inhibit calcium deposition

Question: With “OPN: full-length human recombinant osteopontin prepared as a His-tagged protein; tested with or without casein kinase II phosphorylation” as the compound, how does the “inhibition of ectopic calcification, dose relation (in words)” value ([2]; 0.1 μg/ml to 5.0 μg/ml) read?
Answer: dose-dependent

Question: What about the “time to significantly reduced calcium deposition” value ([2]; after addition to HSMC) of the same compound?
Answer: ≤ 60 min

Question: And the inhibition of calcification ([2]; by 90 minutes following addition)?
Answer: approximately 50%

Question: What about the “calcium deposition into HSMC matrix (in words)” value ([2]; non-phosphorylated forms) of the same compound?
Answer: do not significantly affect

Question: What about the “HSMC calcification (in words)” value ([2]; phosphorylated by casein kinase II, 15 nM) of the same compound?
Answer: able to inhibit HSMC calcification

Question: And the “HSMC calcification (in words)” value ([2]; phosphorylated protein dephosphorylated with alkaline phosphatase (ALP))?
Answer: reverses this inhibitory ability

Question: What about the “calcium deposition into HSMC matrix (in words)” value ([2]; protein phosphorylated by casein kinase II) of the same compound?
Answer: reduced to basal levels
